This is an account of results in US20210254138A1, “SIALIC ACID TRANSPORTER PROTEINS AS BIOMARKERS AND DRUG TARGETS” (Quadram Institute Bioscience, priority 2018, published 2021).

In data set [1] the target is RgSBP (RUMGNA_02698); solute-binding protein of the sialic acid ABC transporter, full-length excluding the signal sequence (residues 1-29), N-terminal His-tag …. Briefly: Isothermal titration calorimetry (ITC) of 2,7-anhydro-Neu5Ac binding to RgSBP (FIG. 4A). Details: species or system Ruminococcus gnavus ATCC 29149. Conditions: 50 mM Tris-HCl pH 7.5, cell protein 100 μM, syringe ligand 2 mM, single-binding site model. From the text: The Nan cluster in R. gnavus ATCC 29149 is predicted to encode a putative sialic acid transporter of the SAT2 family, with RUMGNA_02698 predicted to be a solute binding protein (SBP) and RUMGNA_02697 and 02696 predicted to be two permeases (Crost et al., 2013; 2016). To determine the ligand specificity of R. gnavus SBP protein (RgSBP), the corresponding gene was amplified by PCR from the R. gnavus ATCC 29149 genome, cloned and heterologously expressed in E. coli and the His6-tag recombinant protein purified by immobilised metal ion affinity chromatography (IMAC).
The affinity of the interaction between RgSBP and sialic acid ligands was further assessed by ITC.
The full-length RgSBP excluding the signal sequence (residues 1-29), the full length RgNanA and full length RUMGNA_02695 were amplified from R. gnavus ATCC 29149 gDNA, and cloned into the pHISTEV expression system, introducing a His-tag at the N terminus using primers listed in Table S1. DNA manipulation was carried out in E. coli DH5α cells. […] Protein purification was assessed by standard SDS-polyacrylamide gel electrophoresis using NuPAGE Novex 4-12% Bis-Tris gels (Life Technologies, Paisley, UK). Protein concentration was measured with NanoDrop 1000 UV-Vis
Spectrophotometer (Thermo Fischer Scientific, Wilmington, Del.) and using the extinction coefficient calculated by Protparam (ExPASy-Artimo, 2012) from the peptide sequence. […]
A general note: ITC needs no label: the signal is the heat of the interaction.

The test system of data set [2] is R. gnavus ATCC 29149 wild-type. The data set can be described thus: Growth on sole carbon source, wild-type strain. In kind it is cell-based. Conditions: 11.1 mM in YCFA, anaerobic. The protocol: R. gnavus ATCC 29149 was routinely grown in an anaerobic cabinet (Don Whitley, Shipley, UK) in BHI-YH as previously described (Crost et al., 2013). Growth on single carbon sources utilized anaerobic basal YCFA medium (Duncan et al., 2002) supplemented with 11.1 mM of specific mono- or oligosaccharides (2,7-anhydro-Neu5Ac, 3'Sialyllactose (3'SL) or glucose). The bacteria were grown to late exponential phase for RNA extraction, the culture was performed in 14 ml tubes. Growth was determined spectrophotometrically by monitoring changes in optical density at […] compared to the same medium without bacterium (ΔOD595 nm) hourly for 10 hours.
(§1) The ability of the mutants to utilise sialic acids and sialoconjugates was assessed by supplementing YCFA with 11.1 mM of 2,7-anhydro-Neu5Ac, 3'SL, glucose or Neu5Ac in triplicate 200 μl cultures in 96-well microtiter plates. The OD595 nm was measured hourly for 10 h in an infinite F50 plate reader (Tecan, UK) housed within an anaerobic cabinet connected to Magellan V7.0 software.

Data set [3] concerns R. gnavus ATCC 29149 nan deletion mutants. Briefly: Growth on sole carbon source, nan deletion mutants. The format is cell-based. The settings on record: 11.1 mM in YCFA, anaerobic.
Excerpt: R. gnavus mutants were generated using the ClosTron methodology (Heap et al., 2010), which inserts an erythromycin resistance cassette into the gene of interest. Target sites were identified using the Pertuka method (Perutka et al., 2004). The re-targeted introns were synthesised and ligated into the pMTL007C-E2 vector by ATUM (MenloPark, USA). The plasmids were then transformed into E. coli CA434 using the heat-shock protocol, and the recombinant clones selected for chloramphenicol resistance. Recombinant E. coli cells were grown overnight in 10 ml LB, 1 ml of the overnight culture was pelleted and washed with PBS. The E. coli cell pellet was resuspended in 200 μl of an R. gnavus overnight culture and the cell suspension spotted onto a non-selective BHI-YH plate. […]
as §1

In data set [4] the test system is CC(=O)N[C@H]1[C@H]([C@H](O)[C@H](O)CO)OC(O)(C(=O)O)C[C@@H]1O. The data set can be described thus: purified protein, by the assay type. Conditions: other: substrate of RgNanA; Michaelis-Menten fit; pH 7.0.
Procedure: Aldolase cleavage was measured by monitoring the decrease in absorbance at 340 nm (A340 nm) as NADH is converted to NAD by lactate dehydrogenase in a coupled reaction where pyruvate is released from sialic acid by the aldolase. Reactions were performed in a 100 μl volume with final concentrations of 150 μM NADH (Sigma, St Louis, USA), 0.5 U LDH (Sigma, St Louis, USA), 10 mM sialic acid (Neu5Ac or 2,7-anhydro-Neu5Ac) and 1.5 μg purified RgNanA or EcNanA (E. coli aldolase CAS: 9027-60-5, Carbosynth, UK) in 50 mM Na-phosphate buffer (pH 7.0). The reactions were performed at 37° C. and monitored using FLUOstar OPTIMA (BMG LABTECH). For kinetics experiments, the sialic acid concentration was varied at 20, 10, 5, 4, 2, 1, 0.4, 0.2, 0.1 mM and the initial rate of reaction determined for each concentration in triplicate before analysis was performed by fitting the data to a Michaelis-Menten using Graph Pad Prism (V 5.03).
The substrate specificity of RgNanA was determined using a coupled activity assay where pyruvate released during the conversion of sialic acid to ManNAc is converted to lactate by a lactate dehydrogenase and the subsequent loss of absorbance at 340 nm measured as NADH is converted to NAD^+. A commercially available E. coli sialic acid aldolase (EcNanA) was included as a control and enzymes were tested for activity against 2,7-anhydro-Neu5Ac and Neu5Ac. […] The kinetic parameters of RgNanA were determined by calculating the initial rate of reaction with increasing Neu5Ac concentrations. A Michaelis-Menten curve was fitted to the data and kinetic parameters determined (FIG. 7b).

Broadly, the Kd is the constant that tells how readily two partners part at equilibrium. Low values mean higher affinity, high ones lower affinity. In turn, `CC(=O)NC1C(O)CC2(C(=O)O)OC(C(O)CO)C1O2` (centres unmarked) [2,7-anhydro-Neu5Ac] registered a Kd in data set [1] of 2240 nM.

Consider `CC(=O)N[C@H]1[C@H]([C@H](O)[C@H](O)CO)O[C@@](O[C@H]2[C@@H](O)[C@@H](CO)O[C@@H](O[C@H]3[C@H](O)[C@@H](O)C(O)O[C@@H]3CO)[C@@H]2O)(C(=O)O)C[C@@H]1O` (some centres unmarked) [3'SL, 3'-sialyllactose], for which the “utilisation as a sole carbon source (growth)” value in data set [2] is “able to utilise”. In addition, the “growth on substrate as sole carbon source” value in data set [3] was “no growth was detected”.

Broadly, the Km is the concentration of substrate that gives half-maximal velocity. What is called kcat is the number of substrate molecules converted per active site and unit of time at saturation. On to “RgNanA (RUMGNA_02692, sialic acid aldolase) (Mediterraneibacter gnavus ATCC 29149)”, for which, in data set [4], the Km is 1473 ± 98 µM and the kcat turned out to be 2.757 ± 0.033 s⁻¹.
